Experiments:
Experiment in all cases: relative viability (nuclei count vs DMSO), 5 days (fraction); higher = more cells survive
Bexarotene = compound: C=C(c1ccc(C(=O)O)cc1)c1cc2c(cc1C)C(C)(C)CCC2(C)C [Bexarotene]
Method in brief: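 Lung cancer cell lines in 1536-well plates were exposed by pinning to five library-drug doses (not always all listed) √10 apart, following an overnight hold at 37 °C. MetaXpress counted Hoechst-stained nuclei from 4× images taken after 5 days without medium change. Viability is the median ratio of treated-well to vehicle-well nuclei across plates. Plates required control CV below 25% and at least one doubling.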

Bexarotene + Trametinib = compound: C=C(c1ccc(C(=O)O)cc1)c1cc2c(cc1C)C(C)(C)CCC2(C)C [Bexarotene] + CC(=O)Nc1cccc(-n2c(=O)n(C3CC3)c(=O)c3c(Nc4ccc(I)cc4F)n(C)c(=O)c(C)c32)c1 [Trametinib] (partner 0.02 µM)
Method in brief: (§1)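 One day after seeding in 1536-well plates, lung cancer cell lines were dosed by pin tool. Dosing was either single-drug or a fixed anchor-drug dose plus five library-drug doses (not always all listed) in √10 steps. After 5 days, nuclei were stained in one fix-and-stain step and counted on 4× images, and relative viability is the nuclei count of treated wells over that of vehicle wells, given as the median of duplicate plates.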

Bexarotene + Tozasertib = compound: C=C(c1ccc(C(=O)O)cc1)c1cc2c(cc1C)C(C)(C)CCC2(C)C [Bexarotene] + Cc1cc(Nc2cc(N3CCN(C)CC3)nc(Sc3ccc(NC(=O)C4CC4)cc3)n2)n[nH]1 [Tozasertib] (partner 0.1 µM)
Method in brief: as §1

Bexarotene + AZD7762 = compound: C=C(c1ccc(C(=O)O)cc1)c1cc2c(cc1C)C(C)(C)CCC2(C)C [Bexarotene] + NC(=O)Nc1cc(-c2cccc(F)c2)sc1C(=O)N[C@H]1CCCNC1 [AZD7762] (partner 0.2 µM)
Method in brief: as §1

Cell Line	relative viability (Bexarotene; 0.08 µM)	relative viability (Bexarotene; 0.253 µM)	relative viability (Bexarotene; 0.8 µM)	relative viability (Bexarotene; 2.53 µM)	relative viability (Bexarotene; 8 µM)	relative viability (Bexarotene + Trametinib; first compound 0.08 µM)	relative viability (Bexarotene + Trametinib; first compound 0.253 µM)	relative viability (Bexarotene + Trametinib; first compound 0.8 µM)	relative viability (Bexarotene + Trametinib; first compound 2.53 µM)	relative viability (Bexarotene + Trametinib; first compound 8 µM)	relative viability (Bexarotene + Tozasertib; first compound 0.08 µM)	relative viability (Bexarotene + Tozasertib; first compound 0.253 µM)	relative viability (Bexarotene + Tozasertib; first compound 0.8 µM)	relative viability (Bexarotene + Tozasertib; first compound 2.53 µM)	relative viability (Bexarotene + Tozasertib; first compound 8 µM)	relative viability (Bexarotene + AZD7762; first compound 0.08 µM)	relative viability (Bexarotene + AZD7762; first compound 0.253 µM)	relative viability (Bexarotene + AZD7762; first compound 0.8 µM)	relative viability (Bexarotene + AZD7762; first compound 2.53 µM)	relative viability (Bexarotene + AZD7762; first compound 8 µM)
HCC-366	1.06	0.998	1.02	0.999	1.02	0.357	0.375	0.361	0.295	0.263	0.169	0.118	0.119	0.0858	0.113	0.412	0.397	0.284	0.279	0.358
NCI-H322M	1.08	1.03	0.937	0.988	1.01	0.578	0.443	0.534	0.501	0.508	0.508	0.505	0.488	0.475	0.445	0.518	0.645	0.585	0.548	0.568
NCI-H2347	1.18	1.04	0.809	0.981	1.07	0.31	0.235	0.25	0.279	0.299	0.625	0.668		0.585	0.623	0.794	0.86	0.688	0.691	0.754
NCI-H1975	1.05	1.04	1.09	1.01	1.2	0.387	0.38	0.307	0.331	0.333	0.809	0.875	0.846	0.73	0.879	0.676	0.775	0.672	0.666	0.668
NCI-H2342	1.01	0.797	0.965	1.04	1.06	0.927	0.767	0.794	0.825	0.745	0.552	0.57	0.429	0.473	0.512	0.545	0.5	0.494	0.488	0.718
A-427	1.06	0.963	0.954	0.895	0.893	0.726	0.643	0.629	0.517	0.599	0.203	0.202	0.193	0.202	0.183	0.79	0.71	0.736	0.691	0.688
LCLC-97TM1	1.03	0.969	1.02	0.829	0.939	0.187	0.216	0.157	0.165	0.191	0.251	0.192	0.206	0.189	0.221	0.252	0.35	0.398	0.263	0.237
HCC-15	1.1	1.11	1.02	0.978	1.05	0.372	0.431	0.371	0.371	0.365	0.357	0.531	0.415	0.44	0.34	1.23	1.17	1.27	1.1	1.44

Reference: the supplement of paper PMC10307832
